ChEMBL document CHEMBL6177945, “Dyad System of BOAHY-BODIPY Conjugates as Novel Photoswitchable Photosensitizers for Photodynamic Therapy” (J Med Chem, 2025)
Activity calls are given as the source filed them. The calls are words filed in the database; no cut-off is given here.

Key:
HeLa [1] = experiment: Photocytotoxicity against human HeLa cells at 10 uM incubated with compound for 30 mins under 365 nm UV light for 5 mins followed white LED exposure for 10 mins and measured after 20 hrs post-illumination by MTT assay; format: functional, cell-based; settings: time 20.75 hrs
[2] = Induction of type-II ROS generation in PBS assessed as increase in singlet oxygen by measuring ABDA absorption under white lamp exposure for 10 mins and UV light for 15 mins followed by white lamp exposure for another 10 mins by ABDA based UV-vis absorption spectrophotometric analysis; format: functional; settings: time 35.0 min
[3] = Induction of type-1 ROS generation in PBS assessed as increase in superoxide anion radical by measuring increase in DHR123 fluorescence intensity under white lamp exposure for 10 mins and UV light for 15 mins followed by white lamp exposure for another 10 mins by DHR123 fluorescence based analysis; format: functional; settings: time 35.0 min
[4] = Induction of type-1 ROS generation in PBS assessed as increase in superoxide anion radical by measuring increase in DHR123 fluorescence intensity at 10 uM irradiated with 450 to 800 nm 40.8 mW cm^-2 light up to 10 mins by DHR123 fluorescence based analysis; format: functional
HeLa [5] = experiment: Cytotoxicity against human HeLa cells up to 100 uM incubated for 4 hrs by MTT assay; format: toxicity, cell-based
HeLa [6] = experiment: Photocytotoxicity against human HeLa cells at 10 uM incubated with compound for 30 mins under 365 nm UV light for 1 mins and measured after 20 hrs post-illumination by MTT assay; format: functional, cell-based; settings: time 20.51 hrs
[7] = Phototoxicity in human HeLa cells assessed as cell viability under white LED light for 10 mins; format: functional, cell-based; settings: light or radiation study
[8] = Induction of type-II ROS generation in PBS assessed as increase in singlet oxygen by measuring ABDA absorption at 20 uM irradiated with 450 to 800 nm 40.8 mW cm^-2 light up to 10 mins by ABDA based UV-vis absorption spectrophotometric analysis; format: functional
HeLa [9] = experiment: Photocytotoxicity in human HeLa cells at 10 uM incubated for 30 mins irradiated with 450 to 800 nm 40.8 mW cm^-2 white LED light and measured after 20 hrs by MTT assay; format: functional, cell-based; settings: time 20.5 hrs
HeLa [10] = experiment: Photocytotoxicity against human HeLa cells at 10 uM incubated with compound for 30 mins under 365 nm UV light for 1 mins followed white LED exposure for 2 mins and measured after 20 hrs post-illumination by MTT assay; format: functional, cell-based; settings: time 20.55 hrs
HeLa [11] = experiment: Upregulation of cellular redox metabolism related proteins in human HeLa cells under white light irradiation exposure by GO analysis; format: functional, cell-based
HeLa [12] = experiment: Upregulation of ROS generation related proteins in human HeLa cells under white light irradiation exposure by GO analysis; format: functional, cell-based

SMILES | Activity (HeLa [1]) | Activity [4] | Activity (HeLa [5]) | Activity [8] | other results
CC1=CC(C)=[N+]2C1=C(c1ccccc1)c1c(C)c(/C=[N+]3/N=C(c4ccc([N+](=O)[O-])cc4)O[B-]3(F)F)c(C)n1[B-]2(F)F | Active | – | – | – | –
COc1ccc(C2=N/[N+](=C/c3c(C)c4n(c3C)[B-](F)(F)[N+]3=C(C)C=C(C)C3=C4c3ccccc3)[B-](F)(F)O2)cc1 | Active | – | – | – | Activity [2]: Active; Activity [3]: Active
CC1=C(I)C(C)=[N+]2C1=C(c1ccccc1)c1c(C)c(/C=[N+]3\N=C(c4ccc([N+](=O)[O-])cc4)O[B-]3(F)F)c(C)n1[B-]2(F)F | – | Active | – | – | –
COc1ccc(C2=N/[N+](=C\C3=C(C)C4=C(c5ccccc5)c5c(C)c(/C=[N+]6\N=C(c7ccc(OC)cc7)O[B-]6(F)F)c(C)n5[B-](F)(F)[N+]4=C3C)[B-](F)(F)O2)cc1 | Active | – | Non-toxic | – | –
CC1=C(I)C(C)=[N+]2C1=C(c1ccccc1)c1c(C)c(/C=[N+]3\N=C(c4ccccc4)O[B-]3(F)F)c(C)n1[B-]2(F)F | – | Active | – | Active | Activity (HeLa [6]): Active; IC50 [7]: 3.38 µM
CC1=CC(C)=[N+]2C1=C(c1ccccc1)c1c(C)c(/C=[N+]3\N=C(c4ccc([N+](=O)[O-])cc4)O[B-]3(F)F)c(C)n1[B-]2(F)F | – | Active | Non-toxic | Not active; Slight Changes In Abda Absorption Observed | –
CC1=CC(C)=[N+]2C1=C(c1ccccc1)c1c(C)c(/C=[N+]3/N=C(c4ccccc4)O[B-]3(F)F)c(C)n1[B-]2(F)F | Active | – | – | – | Activity [2]: Active; Activity [3]: Active
CC1=CC(C)=[N+]2C1=C(c1ccccc1)c1c(C)c(/C=[N+]3\N=C(c4ccccc4)O[B-]3(F)F)c(C)n1[B-]2(F)F | – | Active | Non-toxic | Not active; Slight Changes In Abda Absorption Observed | Activity (HeLa [9]): Active
COc1ccc(C2=N/[N+](=C\c3c(C)c4n(c3C)[B-](F)(F)[N+]3=C(C)C=C(C)C3=C4c3ccccc3)[B-](F)(F)O2)cc1 | – | Active | Non-toxic | Not active; Slight Changes In Abda Absorption Observed | Activity (HeLa [9]): Active
CC1=C(/C=[N+]2\N=C(c3ccccc3)O[B-]2(F)F)C(C)=[N+]2C1=C(c1ccccc1)c1c(C)c(/C=[N+]3\N=C(c4ccccc4)O[B-]3(F)F)c(C)n1[B-]2(F)F | Active | Active | Non-toxic | – | –
COc1ccc(C2=N/[N+](=C\c3c(C)c4n(c3C)[B-](F)(F)[N+]3=C(C)C(I)=C(C)C3=C4c3ccccc3)[B-](F)(F)O2)cc1 | – | Active | – | – | Activity (HeLa [10]): Active; Activity (HeLa [11]): Active; Activity (HeLa [12]): Active
